In PMC9860313 (2022):

Tests used:
[1] = system: stabilized aptamer (RNA, aptamer) GGCGAUACCAGCCGAAAGGCCCUUGGCAGCGCC; experiment: X-ray crystallography; conditions: 30 mM NaCl, 5 mM MgCl2, 5 mM HEPES pH 7.5, 0.4 mM RNA, 1 mM ligand
[2] = system: aptamer-B (theophylline aptamer) (RNA, aptamer, 3'-terminal (A)10 spacer is DNA (positions 34-43)) GGCGAUACCAGCCGAAAGGCCCUUGGCAGCGUC; experiment: surface plasmon resonance; conditions: 150 mM NaCl, 5 mM MgCl2; 10 mM HEPES pH 7.4, 0.01-0.1% DMSO, 25°C
[3] = system: mutant aptamer-B (U24C) (RNA, aptamer, 3'-terminal (A)10 spacer is DNA (positions 34-43)) GGCGAUACCAGCCGAAAGGCCCUCGGCAGCGUC; experiment: surface plasmon resonance; conditions: 150 mM NaCl, 5 mM MgCl2; 10 mM HEPES pH 7.4, 0.01-0.1% DMSO, 25°C; highest concentration 0.1-2.0 µM
[4] = system: aptamer-F (theophylline aptamer) (RNA, aptamer) GGCGAUACCAGCCGAAAGGCCCUUGGCAGCGUC; experiment: fluorescence strand invasion assay; conditions: 10 mM NaCl, 5 mM MgCl2; 20 mM HEPES pH 7.5, 0.01% Tween-20; 37°C; inhibits invasion by BBQ-650 2'-F quencher strand (Q-invader); apparent
[5] = system: pentaloop aptamer (RNA, aptamer) GGCGAUACCAGCGAAACACGCCCUUGGCAGCGUC; experiment: X-ray crystallography, soaked crystal; conditions: 30 mM KCl, 10 mM MgCl2 (RNA refolding); Fab-RNA crystals soaked in 1.1 mM TAL2, 1 h; ligand not precisely placed
[6] = crystals from cacodylate pH 6.5, PEG 8K, MPD

binding [1, 6] | Kd [2] | binding [3] | IC50 [4] | binding [5] | binding ([1]; 0.2 M Ca(OAc)2 in reservoir, crystals from PEG 3350, 20°C) | Structure (SMILES)
yes | 670 nM | no | 1990 nM |  |  | Cn1c(=O)c2[nH]cnc2n(C)c1=O
 | 2 nM |  | 460 nM |  | yes | Cn1c(=O)cnc2c(N)nc(=O)[nH]c21

The next lines start with the molecule.

Structure (SMILES) | binding [1, 6] | Kd [2] | binding [3] | IC50 [4] | binding [5] | binding ([1]; 0.2 M Ca(OAc)2 in reservoir, crystals from PEG 3350, 20°C)
COc1cc2ncnc(N3CCN(CCCCO)CC3)c2cc1OC | yes | 280 nM |  | 1920 nM |  | 
COc1cc2c(O)ncnc2cc1OCC1CCN(C)CC1 | yes | 23 nM |  | 1160 nM |  | 
COc1cc2c(O)ncnc2cc1OCCCN1CCCCC1 | yes | 9.1 nM |  | 700 nM | yes | 
